In EP3335720A1, “C-DI-GMP BINDING PEPTIDES” (Universität Basel, priority 2016, dated 2018):
Square brackets hold non-standard residues; d marks the D form. Peptide text beside a SMILES is read from it.

System: not listed separately
Experiment: in vitro
Format: in vitro ADME, P. aeruginosa PAO1
Conditions: not given
Protocol: P. aeruginosa PAO1 lysate, which was used to test peptide stability, was prepared by the following procedure. 500 ml of cells grown overnight at 37°C were harvested by centrifugation at 5000 rpm, 10 min at 4°C. Pellets were resuspended in 60 ml PBS (Gibco) and centrifuged at 5000 rpm, 10 min at 4°C. Pellets were resuspended again in 20 ml PBS and centrifuged at 5000 rpm, 10 min at 4°C. Cells were disrupted using high-pressure cell disrupter (Stansted Fluid Power). Cell lysate was separated from cell debris by centrifugation at 14,000 rpm for 20 min at 4°C. Lysate was diluted 10 fold to yield a protein content of about 1 mg/ml. The lysate was used for all experiments described below.
The stability of peptides was tested against P. aeruginosa PAO1 cell lysate. About 1 to 3 µg of peptides were incubated with 5 µl P. aeruginosa PAO1 cell lysate or PBS (untreated controls) at 37°C. After 2 hours, 6 µl of 2x SDS sample buffer was added to the samples and heated to 95°C for 5 min. Samples were analyzed on 10-20% Mini-PROTEAN tris-tricine gels (BIO-RAD #4563115) according to manufacturer's recommended protocol. Band intensities were quantified using the program ImageJ (Schneider, C. A., Rasband, W. S. and Eliceiri, K. W. 2012. NIH Image to ImageJ: 25 years of image analysis. Nature methods. 9: 671-675).

| Compound | Remaining peptide after 2 hours |
| --- | --- |
| C[C@H](NC(=O)[C@H](CO)NC(=O)[C@H](CC(N)=O)NC(=O)[C@H](Cc1ccccc1)NC(=O)[C@H](CCCNC(=N)N)NC(=O)[C@H](CCCNC(=N)N)NC(=O)[C@H](CCCNC(=N)N)NC(=O)[C@H](CC(=O)O)NC(=O)[C@H](N)CCCNC(=N)N)C(=O)N[C@@H](CC(=O)O)C(=O)N[C@@H](Cc1ccc(O)cc1)C(=O)N[C@@H](CCCCN)C(=O)NCC(=O)N1CCC[C@H]1C(=O)N[C@@H](CCCNC(=N)N)C(=O)N[C@@H](CCCNC(=N)N)C(=O)N[C@@H](CCCNC(=N)N)C(=O)N[C@@H](CCCCN)C(=O)N[C@@H](C)C(=O)N[C@@H](CC(=O)O)C(=O)N[C@H](C)C(N)=O [SEQ ID NO: 42, rDRRRFNSADYKGPRRRKADa-NH2] (H-[dR]DRRRFNSADYKGPRRRKAD[dA]-NH2) | significant improvement |

Same assay, conditions: cells or culture medium

| Compound | remaining at 2 h [%] |
| --- | --- |
| Ac-DRRRFNSADYKGPRRRAAD-NH2 [compound 29] | 9 |
| C[C@H](NC(=O)[C@H](CO)NC(=O)[C@H](CC(N)=O)NC(=O)[C@H](Cc1ccccc1)NC(=O)[C@H](CCCNC(=N)N)NC(=O)[C@H](CCCNC(=N)N)NC(=O)[C@H](CCCNC(=N)N)NC(=O)[C@H](N)CC(=O)O)C(=O)N[C@@H](CC(=O)O)C(=O)N[C@@H](Cc1ccc(O)cc1)C(=O)N[C@@H](CCCCN)C(=O)NCC(=O)N1CCC[C@H]1C(=O)N[C@@H](CCCNC(=N)N)C(=O)N[C@@H](CCCNC(=N)N)C(=O)N[C@@H](CCCNC(=N)N)C(=O)N[C@@H](CCCCN)C(=O)N[C@@H](C)C(=O)N[C@H](CC(=O)O)C(=O)O [compound 39] (H-[dD]RRRFNSADYKGPRRRKA[dD]-OH) | 19 |
| CC(=O)N[C@H](CCCNC(=N)N)C(=O)N[C@@H](CC(=O)O)C(=O)N[C@@H](CCCNC(=N)N)C(=O)N[C@@H](CCCNC(=N)N)C(=O)N[C@@H](CCCNC(=N)N)C(=O)N[C@@H](Cc1ccccc1)C(=O)N[C@@H](CC(N)=O)C(=O)N[C@@H](CO)C(=O)N[C@@H](C)C(=O)N[C@@H](CC(=O)O)C(=O)N[C@@H](Cc1ccc(O)cc1)C(=O)N[C@@H](CCCCN)C(=O)NCC(=O)N1CCC[C@H]1C(=O)N[C@@H](CCCNC(=N)N)C(=O)N[C@@H](CCCNC(=N)N)C(=O)N[C@@H](CCCNC(=N)N)C(=O)N[C@@H](CCCCN)C(=O)N[C@@H](C)C(=O)N[C@@H](CC(=O)O)C(=O)N[C@H](C)C(N)=O [compound 41] (Ac-[dR]DRRRFNSADYKGPRRRKAD[dA]-NH2) | 19 |
| C[C@H](NC(=O)[C@H](CO)NC(=O)[C@H](CC(N)=O)NC(=O)[C@H](Cc1ccccc1)NC(=O)[C@H](CCCNC(=N)N)NC(=O)[C@H](CCCNC(=N)N)NC(=O)[C@H](CCCNC(=N)N)NC(=O)[C@H](CC(=O)O)NC(=O)[C@H](N)CCCNC(=N)N)C(=O)N[C@@H](CC(=O)O)C(=O)N[C@@H](Cc1ccc(O)cc1)C(=O)N[C@@H](CCCCN)C(=O)NCC(=O)N1CCC[C@H]1C(=O)N[C@@H](CCCNC(=N)N)C(=O)N[C@@H](CCCNC(=N)N)C(=O)N[C@@H](CCCNC(=N)N)C(=O)N[C@@H](CCCCN)C(=O)N[C@@H](C)C(=O)N[C@@H](CC(=O)O)C(=O)N[C@H](C)C(N)=O [compound 42] (H-[dR]DRRRFNSADYKGPRRRKAD[dA]-NH2) | 38 |
| C[C@H](NC(=O)[C@H](CO)NC(=O)[C@H](CC(N)=O)NC(=O)[C@H](Cc1ccccc1)NC(=O)[C@H](CCCNC(=N)N)NC(=O)[C@H](CCCNC(=N)N)NC(=O)[C@H](CCCNC(=N)N)NC(=O)[C@H](CC(=O)O)NC(=O)[C@H](N)CCCNC(=N)N)C(=O)N[C@@H](CC(=O)O)C(=O)N[C@@H](Cc1ccc(O)cc1)C(=O)N[C@@H](CCCCN)C(=O)NCC(=O)N1CCC[C@H]1C(=O)N[C@@H](CCCNC(=N)N)C(=O)N[C@@H](CCCNC(=N)N)C(=O)N[C@@H](CCCNC(=N)N)C(=O)N[C@@H](CCCCN)C(=O)N[C@@H](C)C(=O)N[C@@H](CC(=O)O)C(=O)N[C@H](C)C(=O)O [compound 40] (H-[dR]DRRRFNSADYKGPRRRKAD[dA]-OH) | 15 |

Molecular target: c-di-GMP
Experiment: Binding affinity of peptides to c-di-GMP by isothermal titration calorimetry (ITC)
Conditions: Table 3, peptides with amino acid substitution, 15°C, pH 8.0, read-out: Dissociation constant
Protocol: Binding affinities of peptides to c-di-GMP were measured using isothermal titration calorimetry (ITC) on a VP-ITC MicroCalorimeter (MicroCal, Northampton, MA, USA). Peptides, c-di-GMP and buffer (50 mM Tris-HCl, pH 8.0, 100 mM NaCl) were degassed for 15 min prior to filling into sample cell and syringe. All experiments were carried out at a temperature of 15°C. The data were evaluated using ITC Data Analysis in ORIGIN provided by the manufacturer.

| Compound | Kd [nM] |
| --- | --- |
| Ac-DRRRFNSADYKGPRRRAAD-NH2 [compound 29] | 270 |
| Ac-DRRRANSADYKGPRRRKAD-NH2 [compound 17] | 140 |

Same assay, conditions: Table 4, deletion of single amino acid, 15°C, pH 8.0, read-out: Dissociation constant

| Compound | Kd [nM] |
| --- | --- |
| Ac-DRRRFNSAYKGPRRRKAD-NH2 [compound 37] | 440 |
| Ac-DRRRFNSDYKGPRRRKAD-NH2 [compound 36] | 340 |
| Ac-DRRRFNADYKGPRRRKAD-NH2 [compound 35] | 440 |
| Ac-DRRRNSADYKGPRRRKAD-NH2 [compound 33] | 1270 |
| Ac-DRRRFSADYKGPRRRKAD-NH2 [compound 34] | 1250 |
| Ac-DRRFNSADYKGPRRRKAD-NH2 [compound 32] | 1040 |
| Ac-DRRRFNSADYKPRRRKAD-NH2 [compound 38] | 1950 |

Same assay, conditions: compared to the core sequence / peptide of SEQ ID NO: 12

| Compound | binding affinity to c-di-GMP, in words |
| --- | --- |
| Ac-ARRRFNSADYKGPRRRKAD-NH2 [SEQ ID NO: 13, AC-ARRRFNSADYKGPRRRKAD-NH2] | significantly reduced binding affinities |
| Ac-DRRAFNSADYKGPRRRKAD-NH2 [SEQ ID NO: 16, AC-DRRAFNSADYKGPRRRKAD-NH2] | sufficiently high to bind c-di-GMP |
| Ac-DRRRFNSADYKGARRRKAD-NH2 [SEQ ID NO: 25, AC-DRRRFNSADYKGARRRKAD-NH2] | sufficiently high to bind c-di-GMP |
| Ac-DRARFNSADYKGPRRRKAD-NH2 [SEQ ID NO: 15, AC-DRARFNSADYKGPRRRKAD-NH2] | significantly reduced binding affinities |
| Ac-DRRRFNSADYKGPRARKAD-NH2 [SEQ ID NO: 27, AC-DRRRFNSADYKGPRARKAD-NH2] | significantly reduced binding affinities |
| Ac-DRRRFNSADYKGPARRKAD-NH2 [SEQ ID NO: 26, AC-DRRRFNSADYKGPARRKAD-NH2] | significantly reduced binding affinities |
| Ac-DRRRFASADYKGPRRRKAD-NH2 [SEQ ID NO: 18, AC-DRRRFASADYKGPRRRKAD-NH2] | does not significantly reduce binding affinity |
| Ac-DRRRFNSADYKGPRRRKAA-NH2 [SEQ ID NO: 31, AC-DRRRFNSADYKGPRRRKAA-NH2] | significantly reduced binding affinities |
| Ac-DRRRNSADYKGPRRRKAD-NH2 [SEQ ID NO: 33, AC-DRRRNSADYKGPRRRKAD-NH2] | Affinity decreased further |
| Ac-DRRFNSADYKGPRRRKAD-NH2 [SEQ ID NO: 32, AC-DRRFNSADYKGPRRRKAD-NH2] | Affinity decreased further |
| Ac-DARRFNSADYKGPRRRKAD-NH2 [SEQ ID NO: 14, AC-DARRFNSADYKGPRRRKAD-NH2] | significantly reduced binding affinities |
| Ac-DRRRFNAADYKGPRRRKAD-NH2 [SEQ ID NO: 19, AC-DRRRFNAADYKGPRRRKAD-NH2] | does not significantly reduce binding affinity |
| Ac-DRRRFSADYKGPRRRKAD-NH2 [SEQ ID NO: 34, AC-DRRRFSADYKGPRRRKAD-NH2] | Affinity decreased further |
| Ac-DRRRFNSLDYKGPRRRKAD-NH2 [SEQ ID NO: 20, AC-DRRRFNSLDYKGPRRRKAD-NH2] | does not significantly reduce binding affinity |
| Ac-DRRRFNSAAYKGPRRRKAD-NH2 [SEQ ID NO: 21, AC-DRRRFNSAAYKGPRRRKAD-NH2] | does not significantly reduce binding affinity |
| Ac-DRRRFNSADYKGPRRRKLD-NH2 [SEQ ID NO: 30, AC-DRRRFNSADYKGPRRRKLD-NH2] | does not significantly reduce binding affinity |
| Ac-DRRRFNSADYKGPRRRAAD-NH2 [SEQ ID NO: 29, AC-DRRRFNSADYKGPRRRAAD-NH2] | does not significantly reduce binding affinity |
| Ac-DRRRFNSADYKAPRRRKAD-NH2 [SEQ ID NO: 24, AC-DRRRFNSADYKAPRRRKAD-NH2] | significantly reduced binding affinities |
| Ac-DRRRFNSADAKGPRRRKAD-NH2 [SEQ ID NO: 22, AC-DRRRFNSADAKGPRRRKAD-NH2] | significantly reduced binding affinities |
| Ac-DRRRFNSADYAGPRRRKAD-NH2 [SEQ ID NO: 23, AC-DRRRFNSADYAGPRRRKAD-NH2] | does not significantly reduce binding affinity |

Same assay, conditions: single amino acid deletion

| Compound | decrease of c-di-GMP binding affinity compared to the peptide of SEQ ID NO: 12 |
| --- | --- |
| Ac-DRRRFNADYKGPRRRKAD-NH2 [SEQ ID NO: 35, AC-DRRRFNADYKGPRRRKAD-NH2] | 2 to 3 fold |
| Ac-DRRRFNSDYKGPRRRKAD-NH2 [SEQ ID NO: 36, AC-DRRRFNSDYKGPRRRKAD-NH2] | 2 to 3 fold |
| Ac-DRRRFNSADYKPRRRKAD-NH2 [SEQ ID NO: 38, AC-DRRRFNSADYKPRRRKAD-NH2] | about 12 fold |
| Ac-DRRRFNSAYKGPRRRKAD-NH2 [SEQ ID NO: 37, AC-DRRRFNSAYKGPRRRKAD-NH2] | 2 to 3 fold |
